Experimental data reported in patent publication US10927111B2, “Inhibitors of RAF kinases” (Kinnate Biopharma Inc., priority 2019, dated 2021).
Like-named read-outs stand apart in the source and are kept apart here.

Target: human RAF1 (Homo sapiens (Human), UniProt P04049)
Assay: Protein kinase assay (radiometric 33P-ATP, MEK1 (K97R) substrate)
Assay type: biochemical
Settings: read-out: RAF-1 IC50
Method: Protein kinase assay: Assay platform was used to measure kinase/inhibitor interactions as described previously (Anastassiadis et al., 2011). In brief, for each reaction, kinase and substrate were mixed in a buffer containing 20 mM HEPES (pH 7.5), 10 mM MgCl2, 1 mM EGTA, 0.02% Brij35, 0.02 mg/mL BSA, 0.1 mM Na3VO4, 2 mM DTT, and 1% DMSO. All compounds were solubilized in DMSO. Compounds were then added to each reaction mixture via acoustic dispense using an ECHO 550 nanoliter dispenser. For human RAF1 testing, human MEK1 (K97R) was used as a substrate at a concentration of 3 micromolar, with a final ATP concentration of 10 micromolar. For human BRAF testing, human MEK1 (K97R) was used as a substrate at 1 micromolar concentration, with a final ATP concentration of 25 micromolar. […] After a 20-min incubation, ATP (Sigma-Aldrich, St. Louis, Mo. 63178) and [g33P] ATP (specific activity 10 microCi/microliter) purchased at PerkinElmer (Boston, Mass., 02118 Cat #BLU 003H250UC) were added at a final total concentration of 10 mM. Reactions were carried out at room temperature for 2 hr and spotted onto P81 ionexchange cellulose chromatography paper (Reaction Biology). Filter paper was washed in 0.75% phosphoric acid to remove unincorporated ATP. The percent remaining kinase activity relative to a vehicle-containing (DMSO) kinase reaction was calculated for each kinase/inhibitor pair. IC50 values were calculated using Prism 5 (GraphPad).

[1] = human MEK1 (K97R) substrate 3 micromolar, ATP 10 micromolar, 10-dose IC50 mode

Sequence of human RAF1 (P04049 whole entry): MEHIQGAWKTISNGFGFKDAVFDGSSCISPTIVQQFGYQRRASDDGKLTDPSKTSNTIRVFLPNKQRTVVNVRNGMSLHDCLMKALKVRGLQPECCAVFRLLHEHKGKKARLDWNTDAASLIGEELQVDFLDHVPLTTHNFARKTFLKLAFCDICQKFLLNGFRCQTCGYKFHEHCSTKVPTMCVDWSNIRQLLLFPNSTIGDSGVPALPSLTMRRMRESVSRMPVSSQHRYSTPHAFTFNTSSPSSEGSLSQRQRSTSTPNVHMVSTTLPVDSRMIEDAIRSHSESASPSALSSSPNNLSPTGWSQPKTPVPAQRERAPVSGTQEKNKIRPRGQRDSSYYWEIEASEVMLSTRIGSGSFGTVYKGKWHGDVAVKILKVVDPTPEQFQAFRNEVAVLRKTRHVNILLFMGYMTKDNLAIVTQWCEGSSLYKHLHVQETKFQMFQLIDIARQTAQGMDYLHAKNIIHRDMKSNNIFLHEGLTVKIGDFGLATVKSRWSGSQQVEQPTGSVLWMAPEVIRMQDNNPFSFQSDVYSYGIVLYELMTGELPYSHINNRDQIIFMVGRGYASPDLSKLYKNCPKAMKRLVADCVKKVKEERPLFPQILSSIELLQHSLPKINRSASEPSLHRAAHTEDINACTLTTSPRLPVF

IC50 [1]	IC50	Structure (SMILES)
≤ 0.01 µM	–	CNc1ncc2cc(-c3cc(NC(=O)c4cccc(C(F)(F)F)c4C)cnc3C)cnc2n1 [Example 47, 2-methyl-N-(6-methyl-5-(2-(methylamino)pyrido[2,3-d]pyrimidin-6-yl)pyridin-3-yl)-3-(trifluoromethyl)benzamide]
≤ 0.01 µM	–	Cc1ccc(NC(=O)c2ccnc(C(F)(F)F)c2)cc1-c1cc2cnc(NC(=O)C3CC3)nc2nc1C [Example 49, N-(3-(2-(cyclopropanecarboxamido)-7-methylpyrido[2,3-d]pyrimidin-6-yl)-4-methylphenyl)-2-(trifluoromethyl)isonicotinamide]
≤ 0.01 µM	–	CNc1ncc2cc(-c3cc(NC(=O)N4CC[C@@H](OCC(F)(F)F)C4)c(F)cc3C)c(C)nc2n1 [Example 51, (3R)-N-[2-fluoro-4-methyl-5-[7-methyl-2-(methylamino)pyrido[2,3-d]pyrimidin-6-yl]phenyl]-3-(2,2,2-trifluoroethoxy)pyrrolidine-1-carboxamide]
≤ 0.01 µM	–	CNc1ncc2cc(-c3cc(NC(=O)c4ccnc(C(F)(F)F)c4)ccc3C)cnc2n1 [Example 53, N-[4-methyl-3-[2-(methylamino)pyrido[2,3-d]pyrimidin-6-yl]phenyl]-2-(trifluoromethyl)pyridine-4-carboxamide]
≤ 0.01 µM	–	CNc1ncc2cc(-c3cc(NC(=O)N4CC[C@H](OC(F)(F)F)C4)ccc3C)cnc2n1 [Example 56, 3S-N-[4-methyl-3-[2-(methylamino)pyrido[2,3-d]pyrimidin-6-yl]phenyl]-3-(trifluoromethoxy)pyrrolidine-1-carboxamide]
≤ 0.01 µM	–	CNc1ncc2cc(-c3cc(NC(=O)N4CCO[C@H](C(F)(F)F)C4)c(F)cc3C)cnc2n1 [Example 61, (2S)-N-[2-fluoro-4-methyl-5-[2-(methylamino)pyrido[2,3-d]pyrimidin-6-yl]phenyl]-2-(trifluoromethyl)morpholine-4-carboxamide]
≤ 0.01 µM	–	CNc1ncc2cc(-c3cc(NC(=O)N4CCO[C@@H](C(F)(F)F)C4)c(F)cc3C)cnc2n1 [Example 62, (2R)-N-[2-fluoro-4-methyl-5-[2-(methylamino)pyrido[2,3-d]pyrimidin-6-yl]phenyl]-2-(trifluoromethyl)morpholine-4-carboxamide]
≤ 0.01 µM	–	CNc1ncc2cc(-c3cc(NC(=O)N4CC[C@H](OC(F)(F)F)C4)cnc3C)cnc2n1 [Example 63, (3S)-N/-[6-methyl-5-[2-(methylamino)pyrido[2,3-d]pyrimidin-6-yl]pyridin-3-yl]-3-(trifluoromethoxy)pyrrolidine-1-carboxamide]
≤ 0.01 µM	–	CNc1ncc2cc(-c3cc(NC(=O)c4ccnc(C(F)(F)F)c4)ccc3C)c(Cl)nc2n1 [Example 64, N-[3-[7-chloro-2-(methylamino)pyrido[2,3-d]pyrimidin-6-yl]-4-methylphenyl]-2-(trifluoromethyl) pyridine-4-carboxamide]
–	≤ 0.01 µM	CNc1ncc2cc(-c3cc(NC(=O)c4ccnc(C(F)(F)F)c4)ccc3C)c(OC)nc2n1 [Example 68, N-[3-[7-methoxy-2-(methylamino)pyrido[2,3-d]pyrimidin-6-yl]-4-methylphenyl]-2-(trifluoromethyl)pyridine-4-carboxamide]
≤ 0.01 µM	–	CCOc1nc2nc(NC)ncc2cc1-c1cc(NC(=O)c2ccnc(C(F)(F)F)c2)ccc1C [Example 69, N-[3-[7-ethoxy-2-(methylamino)pyrido[2,3-d]pyrimidin-6-yl]-4-methylphenyl]-2-(trifluoromethyl)pyridine-4-carboxamide]
–	≤ 0.01 µM	[2H]C([2H])([2H])Oc1nc2nc(NC)ncc2cc1-c1cc(NC(=O)c2ccnc(C(F)(F)F)c2)ccc1C [Example 71, N-(3-(7-(methoxy-d3)-2-(methylamino)pyrido[2,3-d]pyrimidin-6-yl)-4-methylphenyl)-2-(trifluoromethyl)isonicotinamide]
≤ 0.01 µM	–	CNc1ncc2cc(-c3cc(NC(=O)c4ccnc(C(F)(F)F)c4)ccc3C)c(C#N)nc2n1 [Example 72, N-[3-[7-cyano-2-(methylamino)pyrido[2,3-d]pyrimidin-6-yl]-4-methylphenyl]-2-(trifluoromethyl)pyridine-4-carboxamide]
–	≤ 0.01 µM	[2H]C([2H])([2H])Nc1ncc2cc(-c3cc(NC(=O)c4ccnc(C(F)(F)F)c4)ccc3C)c(C([2H])([2H])[2H])nc2n1 [Example 75, N-(4-methyl-3-(7-(methyl-d3)-2-((methyl-d3)amino)pyrido[2,3-d]pyrimidin-6-yl)phenyl)-2-(trifluoromethyl)isonicotinamide]
≤ 0.01 µM	–	CNc1ncc2cc(-c3cc(NC(=O)c4cc[n+]([O-])c(C(F)(F)F)c4)ccc3C)c(C)nc2n1 [Example 76, 4-([4-methyl-3-[7-methyl-2-(methylamino)pyrido[2,3-d]pyrimidin-6-yl]phenyl]carbamoyl)-2-(trifluoromethyl)pyridin-1-ium-1-olate]
≤ 0.01 µM	–	CNc1ncc2cc(-c3cc(NC(=O)N4CC[C@@H](CC(F)(F)F)C4)ccc3C)c(C#N)nc2n1 [Example 77, (3S)—N-[3-[7-cyano-2-(methylamino)pyrido[2,3-d]pyrimidin-6-yl]-4-methylphenyl]-3-(2,2,2-trifluoroethyl)pyrrolidine-1-carboxamide]

Second part, the compound before the results:

Structure (SMILES)	IC50 [1]	IC50
CNc1ncc2cc(-c3cc(NC(=O)c4cccc(C(F)(F)F)c4)cnc3C)cnc2n1 [Example 45, N-(6-methyl-5-(2-(methylamino)pyrido[2,3-d]pyrimidin-6-yl)pyridin-3-yl)-3-(trifluoromethyl)benzamide]	≤ 0.01 µM	–
CNc1ncc2cc(-c3cc(NC(=O)c4ccnc(C(F)(F)F)c4)cnc3C)cnc2n1 [Example 46, N-(6-methyl-5-(2-(methylamino)pyrido[2,3-d]pyrimidin-6-yl)pyridin-3-yl)-2-(trifluoromethyl)isonicotinamide]	≤ 0.01 µM	–
Cc1ccc(NC(=O)c2ccnc(C(F)(F)F)c2)cc1-c1cc2cnc(N)nc2nc1C [Example 48, N-(3-(2-amino-7-methylpyrido[2,3-d]pyrimidin-6-yl)-4-methylphenyl)-2-(trifluoromethyl)isonicotinamide]	≤ 0.01 µM	–
CNc1ncc2cc(-c3cc(NC(=O)c4cnnc(C(F)(F)F)c4)ccc3C)c(C)nc2n1 [Example 50, N-(4-methyl-3-(7-methyl-2-(methylamino)pyrido[2,3-d]pyrimidin-6-yl)phenyl)-6-(trifluoromethyl)pyridazine-4-carboxamide]	≤ 0.01 µM	–
CNc1ncc2cc(-c3cc(NC(=O)c4ccnc(C(C)(F)F)c4)ccc3C)c(C)nc2n1 [Example 52, 2-(1,1-difluoroethyl)-N-[4-methyl-3-[7-methyl-2-(methylamino)pyrido[2,3-d]pyrimidin-6-yl]phenyl]pyridine-4-carboxamide]	≤ 0.01 µM	–
CNc1ncc2cc(-c3cc(NC(=O)N4CCO[C@H](C(F)(F)F)C4)ccc3C)cnc2n1 [Example 57]	≤ 0.01 µM	–
CNc1ncc2cc(-c3cc(NC(=O)N4CC[C@H](OC(F)(F)F)C4)c(F)cc3C)cnc2n1 [Example 59]	≤ 0.01 µM	–
CNc1ncc2cc(-c3cc(NC(=O)N4CC[C@@H](OC(F)(F)F)C4)c(F)cc3C)cnc2n1 [Example 60, (3R)-N-[2-fluoro-4-methyl-5-[2-(methylamino)pyrido[2,3-d]pyrimidin-6-yl]phenyl]-3-(trifluoromethoxy)pyrrolidine-1-carboxamide]	≤ 0.01 µM	–
C=Cc1nc2nc(NC)ncc2cc1-c1cc(NC(=O)c2ccnc(C(F)(F)F)c2)ccc1C [Example 65, N-[3-[7-ethenyl-2-(methylamino)pyrido[2,3-d]pyrimidin-6-yl]-4-methylphenyl]-2-(trifluoromethyl)pyridine-4-carboxamide]	≤ 0.01 µM	–
CNc1ncc2cc(-c3cc(NC(=O)c4ccnc(C(F)(F)F)c4)ccc3C)c(OCCO)nc2n1 [Example 70, N-[3-[7-(2-hydroxyethoxy)-2-(methylamino)pyrido[2,3-d]pyrimidin-6-yl]-4-methylphenyl]-2-(trifluoromethyl)pyridine-4-carboxamide]	≤ 0.01 µM	–
CNc1ncc2cc(-c3cc(NC(=O)c4ccnc(C(F)(F)F)c4)ccc3C)c(C(F)(F)F)nc2n1 [Example 73, N-[4-methyl-3-[2-(methylamino)-7-(trifluoromethyl)pyrido[2,3-d]pyrimidin-6-yl]phenyl]-2-(trifluoromethyl)pyridine-4-carboxamide]	≤ 0.01 µM	–
[2H]C([2H])([2H])c1nc2nc(NC)ncc2cc1-c1cc(NC(=O)c2ccnc(C(F)(F)F)c2)ccc1C [Example 74, N-(4-methyl-3-(7-(methyl-d3)-2-(methylamino)pyrido[2,3-d]pyrimidin-6-yl)phenyl)-2-(trifluoromethyl)isonicotinamide]	–	≤ 0.01 µM
CNc1ncc2cc(-c3cc(NC(=O)N4CC[C@@H](OC(F)(F)F)C4)ccc3C)c(C#N)nc2n1 [Example 78, (3R)—N-[3-[7-cyano-2-(methylamino)pyrido[2,3-d]pyrimidin-6-yl]-4-methylphenyl]-3-(trifluoromethoxy)pyrrolidine-1-carboxamide]	≤ 0.01 µM	–
CNc1ncc2cc(-c3cc(NC(=O)N4CC[C@H](OC(F)(F)F)C4)ccc3C)c(C#N)nc2n1 [Example 79]	≤ 0.01 µM	–
